Test results as given in ChEMBL document CHEMBL1201862, “PubChem BioAssay data set” (2004).
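96-well plates; 48 h exposure; 5 concentrations. Endpoints by linear interpolation between flanking doses. Not reached: highest tested concentration assigned. GI50 = concentration required for 50% inhibition of growth.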 Activity calls are given as the source filed them. Cut-off read from the data, not from the text of the source: active = GI50 up to about 1.1 µM and inactive = higher.

Key:
Experiment in all cases: NCI tumour cell line growth inhibition, 48 h
CAKI-1 = tested on: CAKI-1
COLO 205 = tested on: COLO 205
HCT-116 = tested on: HCT-116
HOP-62 = tested on: HOP-62
KM12 = tested on: KM12
LOX IMVI = tested on: LOX IMVI
MOLT-4 = tested on: MOLT-4
Malme-3M = tested on: Malme-3M
NCI-H226 = tested on: NCI-H226
OVCAR-4 = tested on: OVCAR-4
OVCAR-5 = tested on: OVCAR-5
RXF 393 = tested on: RXF 393
SK-MEL-28 = tested on: SK-MEL-28
SK-MEL-5 = tested on: SK-MEL-5
SNB-75 = tested on: SNB-75
SR = tested on: SR
SW-620 = tested on: SW-620
TK-10 = tested on: TK-10
UACC-62 = tested on: UACC-62
UO-31 = tested on: UO-31

`O=C(O)C(CSC(c1ccccc1)(c1ccccc1)c1ccccc1)/N=C/c1cccs1` (stereo not given) was tested, and the GI50 (CAKI-1) was 7.46 µM (inactive), the GI50 (COLO 205) was 1.69 µM (inactive) and the GI50 (HCT-116) was 0.468 µM (active). For the same compound, the GI50 (HOP-62) was 5.62 µM (inactive), the GI50 (KM12) was 2.78 µM (inactive) and the GI50 (LOX IMVI) was 4.34 µM (inactive). The GI50 (MOLT-4) was 4.19 µM (inactive), the GI50 (Malme-3M) was 3.6 µM (inactive) and the GI50 (NCI-H226) was 9.12 µM (inactive). The GI50 (OVCAR-4) was 15.1 µM (inactive), the GI50 (OVCAR-5) was 5.45 µM (inactive) and the GI50 (RXF 393) was 2.07 µM (inactive). For the same compound, the GI50 (SK-MEL-28) was 7.48 µM (inactive), the GI50 (SK-MEL-5) was 0.484 µM (active) and the GI50 (SNB-75) was 5.48 µM (inactive). For the same compound, the GI50 (SR) was 4.42 µM (inactive), the GI50 (SW-620) was 1.76 µM (inactive) and the GI50 (TK-10) was 10.8 µM (inactive). For the same compound, the GI50 (UACC-62) was 1.17 µM (inactive) and the GI50 (UO-31) was 17.7 µM (inactive).

With `CN(N=O)c1nc2c(C(N)=O)ncn2s1` the GI50 (CAKI-1) was 28.1 µM (inactive), the GI50 (COLO 205) was > 100 µM (inactive) and the GI50 (HCT-116) was 53 µM (inactive). For the same compound, the GI50 (HOP-62) was 28.8 µM (inactive), the GI50 (KM12) was > 100 µM (inactive) and the GI50 (LOX IMVI) was 15.2 µM (inactive). For the same compound, the GI50 (MOLT-4) was > 100 µM (inactive), the GI50 (Malme-3M) was 85.7 µM (inactive) and the GI50 (NCI-H226) was > 100 µM (inactive). For the same compound, the GI50 (OVCAR-4) was 47.9 µM (inactive), the GI50 (OVCAR-5) was > 100 µM (inactive) and the GI50 (RXF 393) was > 100 µM (inactive). For the same compound, the GI50 (SK-MEL-28) was > 100 µM (inactive), the GI50 (SK-MEL-5) was > 100 µM (inactive) and the GI50 (SNB-75) was 49 µM (inactive). The GI50 (SR) was 48.9 µM (inactive), the GI50 (SW-620) was 46.9 µM (inactive) and the GI50 (TK-10) was 20 µM (inactive). For the same compound, the GI50 (UACC-62) was 32.7 µM (inactive) and the GI50 (UO-31) was 22.2 µM (inactive).

With `COc1ccc(C[C@H]2COC(=O)[C@@H]2Cc2cccc(Br)c2)cc1OC` the GI50 (CAKI-1) was 15.3 µM (inactive), the GI50 (COLO 205) was 14 µM (inactive) and the GI50 (HCT-116) was 12.8 µM (inactive). The GI50 (HOP-62) was 31.4 µM (inactive), the GI50 (KM12) was 18.8 µM (inactive) and the GI50 (LOX IMVI) was 3.85 µM (inactive). The GI50 (MOLT-4) was 8.75 µM (inactive), the GI50 (Malme-3M) was 21.2 µM (inactive) and the GI50 (NCI-H226) was 29.9 µM (inactive). For the same compound, the GI50 (OVCAR-4) was 10.4 µM (inactive), the GI50 (OVCAR-5) was 33.1 µM (inactive) and the GI50 (RXF 393) was 23.6 µM (inactive). For the same compound, the GI50 (SK-MEL-28) was 30.5 µM (inactive), the GI50 (SK-MEL-5) was 15.7 µM (inactive) and the GI50 (SNB-75) was 8.99 µM (inactive). For the same compound, the GI50 (SR) was 3.05 µM (inactive), the GI50 (SW-620) was 22.5 µM (inactive) and the GI50 (TK-10) was 30.4 µM (inactive). For the same compound, the GI50 (UACC-62) was 25.6 µM (inactive) and the GI50 (UO-31) was 22.9 µM (inactive).

With `Cc1cc(C)c2c(O)cc(-c3cccc4ccccc34)nc2n1` the GI50 (CAKI-1) was 2.07 µM (inactive), the GI50 (COLO 205) was 0.41 µM (active) and the GI50 (HCT-116) was 0.403 µM (active). The GI50 (HOP-62) was 10 µM (inactive), the GI50 (KM12) was 0.406 µM (active) and the GI50 (LOX IMVI) was 0.628 µM (active). For the same compound, the GI50 (MOLT-4) was 0.863 µM (active), the GI50 (Malme-3M) was 0.28 µM (active) and the GI50 (NCI-H226) was 1.44 µM (inactive). The GI50 (OVCAR-4) was 4.25 µM (inactive), the GI50 (OVCAR-5) was 2.29 µM (inactive) and the GI50 (RXF 393) was 0.746 µM (active). The GI50 (SK-MEL-28) was 10.8 µM (inactive), the GI50 (SK-MEL-5) was 0.381 µM (active) and the GI50 (SNB-75) was 0.317 µM (active). The GI50 (SR) was 0.342 µM (active), the GI50 (SW-620) was 0.448 µM (active) and the GI50 (TK-10) was > 32.4 µM (inactive). The GI50 (UACC-62) was 0.349 µM (active) and the GI50 (UO-31) was 3.09 µM (inactive).

For `O=C(C1=C(C(=O)c2ccccc2)SC2(S1)C(C(=O)c1ccccc1)=C(C(=O)c1ccccc1)Sc1c2ssc1=O)c1ccccc1`, the GI50 (CAKI-1) was > 100 µM (inactive), the GI50 (COLO 205) was > 100 µM (inactive) and the GI50 (HCT-116) was 82.4 µM (inactive). The GI50 (HOP-62) was > 100 µM (inactive), the GI50 (KM12) was 29.8 µM (inactive) and the GI50 (LOX IMVI) was > 100 µM (inactive). For the same compound, the GI50 (MOLT-4) was 1.11 µM (active), the GI50 (Malme-3M) was > 100 µM (inactive) and the GI50 (NCI-H226) was 27 µM (inactive). For the same compound, the GI50 (OVCAR-4) was 36.7 µM (inactive), the GI50 (OVCAR-5) was 26.8 µM (inactive) and the GI50 (RXF 393) was 34.8 µM (inactive). The GI50 (SK-MEL-28) was > 100 µM (inactive), the GI50 (SK-MEL-5) was 43.6 µM (inactive) and the GI50 (SNB-75) was 36.7 µM (inactive). The GI50 (SR) was 9.51 µM (inactive), the GI50 (SW-620) was 22 µM (inactive) and the GI50 (TK-10) was 70.1 µM (inactive). For the same compound, the GI50 (UACC-62) was 22.4 µM (inactive) and the GI50 (UO-31) was 22.4 µM (inactive).

With `COc1cc(C(=O)CC2OC(=O)C(Cl)=C2Cl)ccc1Cl` (stereo not given) the GI50 (CAKI-1) was > 100 µM (inactive), the GI50 (COLO 205) was > 100 µM (inactive) and the GI50 (HCT-116) was > 100 µM (inactive). The GI50 (HOP-62) was > 100 µM (inactive), the GI50 (KM12) was > 100 µM (inactive) and the GI50 (LOX IMVI) was > 100 µM (inactive). For the same compound, the GI50 (MOLT-4) was > 100 µM (inactive), the GI50 (Malme-3M) was > 100 µM (inactive) and the GI50 (NCI-H226) was > 100 µM (inactive). For the same compound, the GI50 (OVCAR-4) was > 100 µM (inactive), the GI50 (OVCAR-5) was > 100 µM (inactive) and the GI50 (RXF 393) was > 100 µM (inactive). The GI50 (SK-MEL-28) was > 100 µM (inactive), the GI50 (SK-MEL-5) was > 100 µM (inactive) and the GI50 (SNB-75) was > 100 µM (inactive). For the same compound, the GI50 (SR) was > 100 µM (inactive), the GI50 (SW-620) was > 100 µM (inactive) and the GI50 (TK-10) was > 100 µM (inactive). For the same compound, the GI50 (UACC-62) was > 100 µM (inactive) and the GI50 (UO-31) was > 100 µM (inactive).

With `O=C(Nc1nccs1)c1c(O)nc2sccn2c1=O` the GI50 (CAKI-1) was > 10 µM (inactive), the GI50 (COLO 205) was > 10 µM (inactive) and the GI50 (HCT-116) was > 10 µM (inactive). For the same compound, the GI50 (HOP-62) was > 10 µM (inactive), the GI50 (KM12) was > 10 µM (inactive) and the GI50 (LOX IMVI) was > 10 µM (inactive). For the same compound, the GI50 (MOLT-4) was > 10 µM (inactive), the GI50 (Malme-3M) was > 10 µM (inactive) and the GI50 (NCI-H226) was > 10 µM (inactive). For the same compound, the GI50 (OVCAR-4) was > 10 µM (inactive), the GI50 (OVCAR-5) was > 10 µM (inactive) and the GI50 (RXF 393) was > 10 µM (inactive). The GI50 (SK-MEL-28) was > 10 µM (inactive), the GI50 (SK-MEL-5) was > 10 µM (inactive) and the GI50 (SNB-75) was > 10 µM (inactive). For the same compound, the GI50 (SR) was > 10 µM (inactive), the GI50 (SW-620) was > 10 µM (inactive) and the GI50 (TK-10) was > 10 µM (inactive). For the same compound, the GI50 (UACC-62) was > 10 µM (inactive) and the GI50 (UO-31) was 6.55 µM (inactive).
